Test results published in patent US8940720B2, “Macrocycles as factor XIa inhibitors” (Bristol-Myers Squibb Company, priority 2010, dated 2015).
Where a name gives a salt, the structure may show the parent alone.

Target: purified human Factor XIa (Homo sapiens (Human), UniProt P03951)
Assay: Factor XIa enzyme inhibition assay (chromogenic substrate S-2366)
Assay type: biochemical
Conditions: substrate S-2366, pH 7.4
Procedure: The effectiveness of compounds of the present invention as inhibitors of the coagulation Factors XIa, VIIa, IXa, Xa, XIIa, plasma kallikrein or thrombin, can be determined using a relevant purified serine protease, respectively, and an appropriate synthetic substrate. The rate of hydrolysis of the chromogenic or fluorogenic substrate by the relevant serine protease was measured both in the absence and presence of compounds of the present invention. […] A decrease in the rate of absorbance or fluorescence change in the presence of inhibitor is indicative of enzyme inhibition. Such methods are known to one skilled in the art. The results of this assay are expressed as the inhibitory constant, Ki.
Values of Ki were determined by allowing the protease to react with the substrate in the presence of the inhibitor. Reactions were allowed to go for periods of 20-180 minutes (depending on the protease) and the velocities (rate of absorbance or fluorescence change versus time) were measured. The following relationships were used to calculate Ki values: (vo−vs)/vs=I/(Ki(1+S/Km)) for a competitive inhibitor with one binding site; or vs/vo=A+((B−A)/1+((IC50/(I)n))); and Ki=IC50/(1+S/Km) for a competitive inhibitor where: […]

Chain of purified human Factor XIa (P03951 388-625): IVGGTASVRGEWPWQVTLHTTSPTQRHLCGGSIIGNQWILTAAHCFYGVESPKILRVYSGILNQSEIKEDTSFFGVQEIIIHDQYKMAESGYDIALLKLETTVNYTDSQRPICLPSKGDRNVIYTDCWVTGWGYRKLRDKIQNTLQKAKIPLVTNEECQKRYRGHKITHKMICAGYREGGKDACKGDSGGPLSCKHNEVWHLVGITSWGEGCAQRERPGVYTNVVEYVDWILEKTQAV
Chain of purified human Factor XIa (P03951 19-387 partner): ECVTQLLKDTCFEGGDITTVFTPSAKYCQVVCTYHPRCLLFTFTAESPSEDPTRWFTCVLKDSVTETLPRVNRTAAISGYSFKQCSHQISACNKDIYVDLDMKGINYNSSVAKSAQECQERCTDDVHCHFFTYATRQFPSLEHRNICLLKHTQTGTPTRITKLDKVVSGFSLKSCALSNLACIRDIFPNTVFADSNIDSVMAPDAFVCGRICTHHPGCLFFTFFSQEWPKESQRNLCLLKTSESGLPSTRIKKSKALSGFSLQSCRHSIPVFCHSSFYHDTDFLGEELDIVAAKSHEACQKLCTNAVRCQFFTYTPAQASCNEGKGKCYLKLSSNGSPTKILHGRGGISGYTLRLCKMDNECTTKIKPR

Row | Ki [nM] | SMILES
1 | 249 | COC(=O)Nc1ccc2c(c1)OCCCCC[C@H](NC(=O)/C=C/c1cc(Cl)ccc1-n1cnnn1)c1nc-2c(Cl)[nH]1 [Example 9, {(S)-17-Chloro-14-[(E)-3-(5-chloro-2-tetrazol-1-yl-phenyl)-acryloylamino]-8-oxa-16,18-diaza-tricyclo[13.2.1.0^2,7]octadeca-1(17),2,4,6,15(18)-pentaen-5-yl}-carbamic acid methyl ester]
2 | 192 | COC(=O)Nc1ccc2c(c1)NC(=O)CC(O)C(O)C[C@H](NC(=O)/C=C/c1cc(Cl)ccc1-n1cnnn1)c1nc-2c[nH]1 (single isomer, unassigned) [Example 137]
3 | 96 | COC(=O)Nc1ccc2c(c1)NS(=O)(=O)CC=CC[C@H](NC(=O)/C=C/c1cc(Cl)ccc1-n1cnnn1)c1nc-2c[nH]1 (stereo in doubt) [Example 19, {(E)-(S)-14-[(E)-3-(5-Chloro-2-tetrazol-1-yl-phenyl)-acryloylamino]-9,9-dioxo-9λ^6-thia-8,16,18-triaza-tricyclo[13.2.1.0^2,7]octadeca-1(17),2,4,6,11,15(18)-hexaen-5-yl}-carbamic acid methyl ester]
4 | 1060 | COC(=O)Nc1ccc2c(c1)NC(=O)CC/C=C/CC(NC(=O)/C=C/c1cc(Cl)ccc1-n1cnnn1)c1cc(Cl)nnc1-2 (centres unmarked) [Example 89, Methyl((E)-3-chloro-5-((E)-3-(5-chloro-2-(1H-tetrazol-1-yl)phenyl)acrylamido)-11-oxo-5,6,9,10,11,12-hexahydrobenzo[b]pyridazino[3,4-d][1]azacyclododecin-14-yl)carbamate]
5 | 435 | COC(=O)Nc1ccc2c(c1)NC(C(=O)OC)(C(F)(F)F)CCCC[C@H](NC(=O)/C=C/c1cc(Cl)ccc1-n1cnnn1)c1nc-2c[nH]1 (some centres unmarked) [Example I-104]
6 | 34 | COC(=O)Nc1ccc2c(c1)CCCCCC[C@H](NC(=O)/C=C/c1cc(Cl)ccc1-n1cnnn1)c1nc-2c[nH]1 [Example 6, {(S)-14-[(E)-3-(5-Chloro-2-tetrazol-1-yl-phenyl)-acryloylamino]-16,18-diaza-tricyclo[13.2.1.0^2,7]octadeca-1(17),2,4,6,15(18)-pentaen-5-yl}-carbamic acid methyl ester]
7 | 217 | COC(=O)Nc1ccc2c(c1)NC(=O)CCCC[C@H](NC(=O)c1cn(-c3cccc(Cl)c3)nn1)c1nc-2c[nH]1 [Example I-10]
8 | < 5 | COC(=O)Nc1ccc2c(c1)NCCCCC[C@H](NC(=O)/C=C/c1cc(Cl)ccc1-n1cnnn1)c1nc-2c(C#N)[nH]1 [Example I-115, {(S)-14-[(E)-3-(5-Chloro-2-tetrazol-1-yl-phenyl)-acryloylamino]-17-cyano-8,16,18-triaza-tricyclo[13.2.1.0^2,7]octadeca-1(17),2,4,6,15(18)-pentaen-5-yl}-carbamic acid methyl ester, 2 TFA salt]
9 | < 5 | O=C(/C=C/c1cc(Cl)ccc1-n1cnnn1)N[C@H]1CCCCCNc2cc(NC(=O)OC[C@H]3CCCO3)ccc2-c2c[nH]c1n2 [Example I-124]
10 | < 5 | COC(=O)Nc1ccc2c(c1)NC(=O)CC/C=C/CC(NC(=O)/C=C/c1cc(Cl)ccc1-n1cnnn1)c1cccc-2c1 (centres unmarked) [Example 93, {(E)-15-[(E)-3-(5-Chloro-2-tetrazol-1-yl-phenyl)-acryloylamino]-9-oxo-8-aza-tricyclo[14.3.1.0^2,7]icosa-1(20),2,4,6,12,16,18-heptaen-5-yl}-carbamic acid methyl ester]
11 | 351 | COC(=O)Nc1ccc2c(c1)NC(=O)CCCC[C@H](NC(=O)c1cccc3ccccc13)c1nc-2c[nH]1 [Example I-17]
12 | < 5 | COC(=O)Nc1ccc2c(c1)NC(=O)CC/C=C/C[C@H](NC(=O)c1ccc(C(=N)N)cc1)c1cc-2ccn1 [II-3]
13 | < 5 | COC(=O)Nc1ccc2c(c1)NC(=O)C(C)CCC[C@H](NC(=O)c1c(F)cc3c(ccn3C)c1F)c1nc-2c(Cl)[nH]1 (some centres unmarked) [Example I-59]
14 | 311 | COC(=O)Nc1ccc2c(c1)NC(=O)CCCC[C@H](NC(=O)c1ccc3c(c1)CCCN3)c1nc-2c[nH]1 [Example I-13]
15 | 21 | COC(=O)Nc1ccc2c(c1)NC(=O)CC/C=C/C[C@H](NC(=O)c1ccc3c(c1)CCC[C@H]3N)c1nc-2c[nH]1 [Example I-152]
16 | 6.6 | COC(=O)Nc1ccc2c(c1)NC(=O)C(C)CCC[C@H](NC(=O)c1c(F)cc3c(ncn3C)c1F)c1nc-2c(Cl)[nH]1 (some centres unmarked) [Example I-57]
17 | 9 | COC(=O)Nc1ccc2c(c1)NCCCCC[C@H](NC(=O)/C=C/c1cc(C)ccc1-n1cnnn1)c1nc-2c(C#N)[nH]1 [Example I-268]
18 | 9 | COC(=O)Nc1ccc2c(c1)NC(=O)CC/C=C/C[C@H](NC(=O)/C=C/c1cccc(Cl)c1)c1nc-2c(Cl)[nH]1 [Example I-309]
19 | 1870 | COC(=O)Nc1ccc2c(c1)NC(=O)CCCC[C@H](NC(=O)c1cc(-c3cccc(Cl)c3)no1)c1nc-2c[nH]1 [Example I-9]
20 | < 5 | COC(=O)Nc1ccc2c(c1)NC(=O)CCC(C)CC[C@H](NC(=O)/C=C/c1cc(Cl)ccc1-n1cnnn1)c1nc-2c[nH]1 (single isomer, unassigned) [Example 61]
21 | 947 | COC(=O)Nc1ccc2c(c1)CC(C(=O)N(C)C)CCCC[C@H](NC(=O)/C=C/c1cc(Cl)ccc1-n1cnnn1)c1nc-2c[nH]1 (some centres unmarked) [Example I-258]
22 | 6 | COC(=O)Nc1ccc2c(c1)NCCCCC[C@H](NC(=O)/C=C/c1cc(Cl)ccc1-n1cnnn1)c1nc-2c[nH]1 [Example 11, {(S)-14-[(E)-3-(5-Chloro-2-tetrazol-1-yl-phenyl)-acryloylamino]-8,16,18-triaza-tricyclo[13.2.1.0^2,7]octadeca-1(17),2,4,6,15(18)-pentaen-5-yl}-carbamic acid methyl ester]
23 | 25 | O=C(/C=C/c1cc(Cl)ccc1-n1cnnn1)N[C@H]1CC=CCCC(=O)Nc2ccccc2C2=NN=C1O2 (mixture of isomers) [Example 122, (E)-3-(5-Chloro-2-tetrazol-1-yl-phenyl)-N-((S)-9-oxo-19-oxa-8,17,18-triaza-tricyclo[14.2.1.0^2,7]nonadeca-1(18),2,4,6,12,16-hexaen-15-yl)-acrylamide, and (Z)-3-(5-Chloro-2-tetrazol-1-yl-phenyl)-N-((S)-9-oxo-19-oxa-8,17,18-triaza-tricyclo[14.2.1.0^2,7]nonadeca-1(18),2,4,6,12,16-hexaen-15-yl)-acrylamide]
24 | 157 | COC(=O)Nc1ccc2c(c1)NC(=O)C/C=C/CC(NC(=O)/C=C/c1cc(Cl)ccc1-n1cnnn1)c1cc-2nc(C)n1 (centres unmarked) [Example 167, {(E)-14-[(E)-3-(5-Chloro-2-tetrazol-1-yl-phenyl)-acryloylamino]-17-methyl-9-oxo-8,16,18-triaza-tricyclo[13.3.1.0^2,7]nonadeca-1(19),2,4,6,11,15,17-heptaen-5-yl}-carbamic acid methyl ester]
25 | 133 | COC(=O)Nc1ccc2c(c1)NCCCCC[C@H](NC(=O)/C=C/c1c(C(C)=O)ccc(Cl)c1F)c1nc-2c(C#N)[nH]1 [Example I-265]
26 | < 5 | COC(=O)Nc1ccc2c(c1)N[C@@H](CO)CCCC[C@H](NC(=O)/C=C/c1cc(Cl)ccc1-n1cnnn1)c1nc-2c[nH]1 [Example I-77, {(9R,14S)-14-[(E)-3-(5-Chloro-2-tetrazol-1-yl-phenyl)-acryloylamino]-9-hydroxymethyl-8,16,18-triaza-tricyclo[13.2.1.0^2,7]octadeca-1(17),2,4,6,15(18)-pentaen-5-yl}-carbamic acid methyl ester, 2 TFA salt]
27 | 4950 | Cc1cc(F)c(C(=O)N[C@H]2C/C=C/CCC(=O)Nc3cc(NC(=O)OCCN(C)C)ccc3-c3nc2[nH]c3Cl)c(F)c1 [Example I-183, [(E)-(S)-18-Chloro-15-(2,6-difluoro-4-methyl-benzoylamino)-9-oxo-8,17,19-triaza-tricyclo[14.2.1.0^2,7]nonadeca-1(18),2,4,6,12,16(19)-hexaen-5-yl]-carbamic acid 2-dimethylamino-ethyl ester, 2 TFA]
28 | < 5 | O=C(/C=C/c1cc(Cl)ccc1-n1cnnn1)N[C@H]1C/C=C/CCC(=O)Nc2ccc(F)cc2-c2nc1[nH]c2Cl [Example I-227]
29 | 572 | CCOC(=O)C1CCCC[C@H](NC(=O)/C=C/c2cc(Cl)ccc2-n2cnnn2)c2cc(ccn2)-c2ccc(NC(=O)OC)cc2N1 (some centres unmarked) [II-18]
30 | 1740 | COC(=O)Nc1ccc2c(c1)C(=O)C(F)(F)CCCC[C@H](NC(=O)/C=C/c1cc(Cl)ccc1-n1cnnn1)c1nc-2c[nH]1 [Example I-270, {(S)-14-[(E)-3-(5-Chloro-2-tetrazol-1-yl-phenyl)-acryloylamino]-9,9-difluoro-8-oxo-16,18-diaza-tricyclo[13.2.1.0^2,7]octadeca-1(17),2,4,6,15(18)-pentaen-5-yl}-carbamic acid methyl ester, TFA salt]

Row | SMILES | Ki [nM]
31 | NC[C@H]1CC[C@H](C(=O)N[C@H]2C/C=C/CCCc3ccccc3-c3c[nH]c2n3)CC1 [Example 3] | 6170
32 | COC(=O)Nc1ccc2c(c1)/N=C/CCCC[C@H](NC(=O)/C=C/c1cc(Cl)ccc1-n1cnnn1)c1nc-2c(F)[nH]1 [Example I-107, {(E)-(S)-14-[(E)-3-(5-Chloro-2-tetrazol-1-yl-phenyl)-acryloylamino]-17-fluoro-8,16,18-triaza-tricyclo[13.2.1.0^2,7]octadeca-1(17),2,4,6,8,15(18)-hexaen-5-yl}-carbamic acid methyl ester, trifluoroacetic acid salt] | 29
